Source: ChEMBL document CHEMBL4616647, “PTP1B-Inhibiting Branched-Chain Fatty Acid Dimers from Eremophila oppositifolia subsp. angustifolia Identified by High-Resolution PTP1B Inhibition Profiling and HPLC-PDA-HRMS-SPE-NMR Analysis” (J Nat Prod, 2020)
Calls of active or inactive are those of the source. The rule behind the calls is not given here.

Assays:
[1] = biological target: T1, Tyrosine-protein phosphatase non-receptor type 1 (Homo sapiens, UniProt P18031); assay: Inhibition of PTP1B (unknown origin) using pNPP as substrate incubated for 30 mins by photometric method
T1 sequence (P18031 whole entry): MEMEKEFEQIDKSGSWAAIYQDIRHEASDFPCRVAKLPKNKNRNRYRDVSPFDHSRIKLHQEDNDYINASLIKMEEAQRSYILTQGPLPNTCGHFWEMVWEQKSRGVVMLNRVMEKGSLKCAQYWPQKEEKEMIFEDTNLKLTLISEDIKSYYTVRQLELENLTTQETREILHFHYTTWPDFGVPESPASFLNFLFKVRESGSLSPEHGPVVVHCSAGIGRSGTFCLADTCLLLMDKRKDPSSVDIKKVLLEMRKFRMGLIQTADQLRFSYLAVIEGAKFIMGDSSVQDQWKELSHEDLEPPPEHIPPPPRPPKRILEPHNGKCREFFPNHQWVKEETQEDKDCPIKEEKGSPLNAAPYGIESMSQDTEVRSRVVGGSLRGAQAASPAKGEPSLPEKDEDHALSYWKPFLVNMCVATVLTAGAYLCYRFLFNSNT

[2] = biological target: T1, Tyrosine-protein phosphatase non-receptor type 1; assay: Inhibition of human recombinant PTP1B (1 to 322 residues) expressed in Escherichia coli using pNPP as substrate preincubated for 10 mins followed by substrate addition and measured after every 30 secs for 10 mins by photometric method
[3] = biological target: T2, Tyrosine-protein phosphatase non-receptor type 1 (Homo sapiens) (UniProt P18031); assay: Inhibition of human recombinant PTP1B (1 to 322 residues) expressed in Escherichia coli by HPLC-PDA-HRMS-SPE-NMR analysis
T2 sequence (whole entry): T1 sequence (P18031 whole entry)

| Structure (SMILES) | IC50 [1] | IC50 [2] | inhibition [3] |
| --- | --- | --- | --- |
| CCCCCCCCCCCCCCCCCC(=O)O [STEARIC ACID] | 2.3 µM | – | – |
| CCCCCCCC/C=C\CCCCCCCC(=O)O [OLEIC ACID] | 6.2 µM | – | – |
| CCCCCCCCCCCCCCCCCCCC(=O)O [ARACHIDIC ACID] | 1.6 µM | – | – |
| CCCCCCCCCCCCCCCC(=O)O [PALMITIC ACID] | 8.8 µM | – | – |
| CCCCCCCC/C=C\CCCCCCCCCC(=O)O | 1.4 µM | – | – |
| CCCCCCCCCCCCCCCC(=O)C1=C(O)[C@@H](CO)OC1=O | – | 7.3 µM | – |
| CCCCCC/C=C\CCCCCCCC(=O)O [PALMITOLEIC ACID] | 6.4 µM | – | – |
| CCCCCCC[C@@H]1[C@@H](/C(=C/C=C/C(=O)O)COC(C)=O)[C@@H](/C=C/C(=O)O)C(COC(C)=O)=C[C@H]1CCCCCCC | – | 12 µM | Active |

The remaining lines, values ahead:

| IC50 [1] | IC50 [2] | inhibition [3] | Structure (SMILES) |
| --- | --- | --- | --- |
| – | 38 µM | – | CCCCCCC/C=C/C(=C\C=C\C(=O)O)COC(C)=O |
| – | 24 µM | Active | CCCCCCC[C@@H]1[C@@H](/C(=C/C=C/C(=O)O)COC(C)=O)[C@@H](/C=C/C(=O)O)C(CO)=C[C@H]1CCCCCCC |
| – | 144 µM | – | C=C(/C=C/CCCCCCC)CCCC(=O)O |
| – | 66 µM | Active | CCCCCCC/C=C/C(=C/[C@H]1[C@H](C(=O)O)[C@H](CCCCCCC)C=C(COC(C)=O)[C@@H]1/C=C/C(=O)O)COC(=O)O |
| – | 2.4 µM | Active | CCCCCCC[C@H]1[C@H](/C(=C/C=C/C(=O)O)CO)[C@@H](/C=C/C(=O)O)C(COC(C)=O)=C[C@H]1CCCCCCC |
| – | 163 µM | – | CCCCCCC/C=C/C(=C/C=C/C(=O)O)CO |
| – | 30 µM | Active | CCCCCCC[C@@H]1[C@@H](/C(=C/C=C/C(=O)O)CO)[C@@H](/C=C/C(=O)O)C(COC(C)=O)=C[C@H]1CCCCCCC |
| – | 73 µM | – | CCCCCCC/C=C/C(C)=C/C=C/C(=O)O |
| – | 484 µM | – | CCCCCCC/C=C/C(=C/C=C/C(=O)O)COC(C)=O |
| – | 12 µM | Active | CCCCCCC[C@H]1[C@H](/C(=C/C=C/C(=O)O)COC(C)=O)[C@@H](/C=C/C(=O)O)C(COC(C)=O)=C[C@H]1CCCCCCC |
